Experimental data published in patent US20240287070A1, “FUSED HETEROCYCLIC DERIVATIVES” (Janssen Sciences Ireland Unlimited Company, priority 2021, published 2024).

Key:
[1] = system: HBV (HepG2.117 cell line, inducibly HBV producing); assay: Anti-HBV activity, intracellular HBV DNA by real-time PCR in HepG2.117 cell line; type: cell-based, hepatitis B virus; settings: HepG2.117 cells, 3 days of treatment
Method in brief: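 HepG2.117 cells replicate HBV under Tet-off control, without doxycycline. After induction of replication, cells were treated with serially diluted compound for 3 days, and intracellular HBV DNA was then quantified by real-time PCR with an HBV-specific primer set and probe.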

[2] = Human liver microsome stability; type: in vitro ADME; settings: 1 μM compound, NADPH 1 mM, 37° C., 0-60 min; for HLM Metabolism t1/2: pooled human liver microsomes 0.5 mg/mL
Method in brief: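 Single incubations with human liver microsomes started with 1 mM NADPH; samples taken at 0, 5, 10, 20, 40 and 60 min, quenched in acetonitrile (1:3). Cassette LC-MS analysis with internal standard; t½ derived from slope of ln peak-area ratio versus time (k = −gradient).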

[3] = system: HepG2 or HepG2.117 cells; assay: Cytotoxicity, ATPlite Luminescence Assay; type: cell-based, human; settings: 3-days incubation unless marked with *
Method in brief: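 Luminescent ATP quantitation served as the viability endpoint following a 3- or 4-day incubation with test compounds.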

## CC(c1ccc(C#N)cc1)N1C[C@@H](C)n2nc3c(c2C1=O)CN(C(=O)c1ccc(Cl)c(Cl)c1)[C@H](C)C3 (single isomer, unassigned) [Compound 66B, 4-((S*)-1-((3R,7R)-2-(3,4-dichlorobenzoyl)-3,7-dimethyl-10-oxo-1,3,4,7,8,10-hexahydropyrido[4′,3′:3,4]pyrazolo[1,5-a]pyrazin-9(2H)-yl)ethyl)benzonitrile]
[1]
  EC50: 0.017 µM
[2]
  HLM Metabolism t1/2: >3 h
[3]
  CC50: 19.1 µM

## CC(c1cnc(C(C)(C)O)nc1)N1C[C@@H](C)n2nc3c(c2C1=O)CN(C(=O)c1ccc(Cl)c(Cl)c1)[C@H](C)C3 (single isomer, unassigned) [Compound 36B, (3R,7R)-2-(3,4-Dichlorobenzoyl)-9-((S*)-1-(2-(2-hydroxypropan-2-yl)pyrimidin-5-yl)ethyl)-3,7-dimethyl-1,2,3,4,8,9-hexahydropyrido[4′,3′:3,4]pyrazolo[1,5-a]pyrazin-10(7H)-one]
[1]
  EC50: 0.029 µM
[2]
  HLM Metabolism t1/2: >3 h
[3]
  CC50: > 50 µM

## CC(c1cnc(C2CC2)cn1)N1C[C@@H](C)n2nc3c(c2C1=O)CN(C(=O)c1ccc(Cl)c(Cl)c1)[C@H](C)C3 (single isomer, unassigned) [Compound 3B, (3R,7R)-9-((S*)-1-(5-cyclopropylpyrazin-2-yl)ethyl)-2-(3,4-dichlorobenzoyl)-3,7-dimethyl-1,2,3,4,8,9-hexahydropyrido[4′,3′:3,4]pyrazolo[1,5-a]pyrazin-10(7H)-one]
[1]
  EC50: 0.023 µM
[2]
  HLM Metabolism t1/2: 2.22 h
[3]
  CC50: 16.4 µM

## Cc1ncc(C(C)N2C[C@@H](C)n3nc4c(c3C2=O)CN(C(=O)c2ccc(Cl)c(Cl)c2)[C@H](C)C4)cn1 (single isomer, unassigned) [Compound 4B, (3R,7R)-2-(3,4-dichlorobenzoyl)-3,7-dimethyl-9-((S*)-1-(2-methylpyrimidin-5-yl)ethyl)-1,2,3,4,8,9-hexahydropyrido[4′,3′:3,4]pyrazolo[1,5-a]pyrazin-10(7H)-one]
[1]
  EC50: 0.057 µM
[2]
  HLM Metabolism t1/2: >3 h
[3]
  CC50: > 50 µM

## CC(c1ccn(C(C)C)c(=O)c1)N1C[C@@H](C)n2nc3c(c2C1=O)CN(C(=O)c1ccc(Cl)c(C(F)(F)F)c1)[C@H](C)C3 (single isomer, unassigned) [Compound 47B, (3R,7R)-2-(4-chloro-3-(trifluoromethyl)benzoyl)-9-((S*)-1-(1-isopropyl-2-oxo-1,2-dihydropyridin-4-yl)ethyl)-3,7-dimethyl-1,2,3,4,8,9-hexahydropyrido[4′,3′:3,4]pyrazolo[1,5-a]pyrazin-10(7H)-one]
[1]
  EC50: 0.016 µM
[2]
  HLM Metabolism t1/2: 2.4 h
[3]
  CC50: > 50 µM

## CC(c1ccc(C(C)(C)O)nc1)N1C[C@@H](C)n2nc3c(c2C1=O)CN(C(=O)c1ccc(Cl)c(C(F)(F)F)n1)[C@H](C)C3 (single isomer, unassigned) [Compound 62B, (3R,7R)-2-(5-chloro-6-(trifluoromethyl)picolinoyl)-9-((S*)-1-(6-(2-hydroxypropan-2-yl)pyridin-3-yl)ethyl)-3,7-dimethyl-1,2,3,4,8,9-hexahydropyrido[4′,3′:3,4]pyrazolo[1,5-a]pyrazin-10(7H)-one]
[1]
  EC50: 0.068 µM
[2]
  HLM Metabolism t1/2: 2.07 h
[3]
  CC50: > 50 µM

## Cc1ccc(C(C)N2C[C@@H](C)n3nc4c(c3C2=O)CN(C(=O)c2ccc(Cl)c(Cl)c2)[C@H](C)C4)nn1 (single isomer, unassigned) [Compound 6B, (3R,7R)-2-(3,4-dichlorobenzoyl)-3,7-dimethyl-9-((S*)-1-(6-methylpyridazin-3-yl)ethyl)-1,2,3,4,8,9-hexahydropyrido[4′,3′:3,4]pyrazolo[1,5-a]pyrazin-10(7H)-one]
[1]
  EC50: 0.065 µM
[2]
  HLM Metabolism t1/2: >3 h
[3]
  CC50: > 50 µM

## CC(c1ccc(S(N)(=O)=O)cc1)N1C[C@@H](C)n2nc3c(c2C1=O)CN(C(=O)c1ccc(Cl)c(Cl)c1)[C@H](C)C3 (single isomer, unassigned) [Compound 16B, 4-((S*)-1-((3R,7R)-2-(3,4-dichlorobenzoyl)-3,7-dimethyl-10-oxo-1,2,3,4,7,8-hexahydropyrido[4′,3′:3,4]pyrazolo[1,5-a]pyrazin-9(10H)-yl)ethyl)benzenesulfonamide]
[1]
  EC50: 0.059 µM
[2]
  HLM Metabolism t1/2: >3 h
[3]
  CC50: > 50 µM

## CC(c1ccc(C(C)(C)O)nc1)N1C[C@@H](C)n2nc3c(c2C1=O)CN(C(=O)c1ccc(Cl)c(C#N)c1)[C@H](C)C3 (single isomer, unassigned) [Compound 63B, 2-chloro-5-((3R,7R)-9-((S*)-1-(6-(2-hydroxypropan-2-yl)pyridin-3-yl)ethyl)-3,7-dimethyl-10-oxo-1,2,3,4,7,8,9,10-octahydropyrido[4′,3′:3,4]pyrazolo[1,5-a]pyrazine-2-carbonyl)benzonitrile]
[1]
  EC50: 0.052 µM
[2]
  HLM Metabolism t1/2: >3 h
[3]
  CC50: > 50 µM

## CC(c1ccc(C(F)(F)F)nc1)N1C[C@@H](C)n2nc3c(c2C1=O)CN(C(=O)c1ccc(Cl)c(C#N)c1)[C@H](C)C3 (single isomer, unassigned) [Compound 12B, 2-Chloro-5-((3R,7R)-3,7-dimethyl-10-oxo-9-((S*)-1-(6-(trifluoromethyl)pyridin-3-yl)ethyl)-1,2,3,4,7,8,9,10-octahydropyrido[4′,3′:3,4]pyrazolo[1,5-a]pyrazine-2-carbonyl)benzonitrile]
[1]
  EC50: 0.068 µM
[2]
  HLM Metabolism t1/2: >3 h
[3]
  CC50: > 50 µM

## CNC(=O)C(c1ccc(OC(F)F)cc1)N1C[C@@H](C)n2nc3c(c2C1=O)CN(C(=O)c1ccc(Cl)c(Cl)c1)[C@H](C)C3 (single isomer, unassigned) [Compound 23B, (S*)-2-((3R,7R)-2-(3,4-dichlorobenzoyl)-3,7-dimethyl-10-oxo-1,3,4,7,8,10-hexahydropyrido[4′,3′:3,4]pyrazolo[1,5-a]pyrazin-9(2H)-yl)-2-(4-(difluoromethoxy)phenyl)-N-methylacetamide]
[1]
  EC50: 0.24 µM
[2]
  HLM Metabolism t1/2: >3 h
[3]
  CC50: 49.3 µM

## CC(c1ccn(CC(F)(F)F)c(=O)c1)N1C[C@@H](C)n2nc3c(c2C1=O)CN(C(=O)c1ccc(Cl)c(Cl)c1)[C@H](C)C3 (single isomer, unassigned) [Compound 51B, (3R,7R)-2-(3,4-dichlorobenzoyl)-3,7-dimethyl-9-((S*)-1-(2-oxo-1-(2,2,2-trifluoroethyl)-1,2-dihydropyridin-4-yl)ethyl)-1,2,3,4,8,9-hexahydropyrido[4′,3′:3,4]pyrazolo[1,5-a]pyrazin-10(7H)-one]
[1]
  EC50: 0.028 µM
[2]
  HLM Metabolism t1/2: >3 h
[3]
  CC50: > 50 µM

## C[C@@H]1Cc2nn3c(c2CN1C(=O)c1ccc(Cl)c(C(F)(F)F)c1)C(=O)N([C@@H](C)c1ccc([S@@]2(=O)=NCCC2)nc1)C[C@H]3C (relative stereo) [Compound 30B, (3R,7R)-2-(4-chloro-3-(trifluoromethyl)benzoyl)-3,7-dimethyl-9-((S*)-1-(6-((R*)-1-oxido-4,5-dihydro-3H-116-isothiazol-1-yl)pyridin-3-yl)ethyl)-1,2,3,4,8,9-hexahydropyrido[4′,3′:3,4]pyrazolo[1,5-a]pyrazin-10(7H)-one]
[1]
  EC50: 0.074 µM
[2]
  HLM Metabolism t1/2: 0.315 h
[3]
  CC50: > 50 µM

## CC(c1cnc(C(F)(F)F)cn1)N1C[C@@H](C)n2nc3c(c2C1=O)CN(C(=O)c1ccc(Cl)c(Cl)c1)[C@H](C)C3 (single isomer, unassigned) [Compound 7B, (3R,7R)-2-(3,4-dichlorobenzoyl)-3,7-dimethyl-9-((S*)-1-(5-(trifluoromethyl)pyrazin-2-yl)ethyl)-1,2,3,4,8,9-hexahydropyrido[4′,3′:3,4]pyrazolo[1,5-a]pyrazin-10(7H)-one]
[1]
  EC50: 0.048 µM
[2]
  HLM Metabolism t1/2: >3 h
[3]
  CC50: 16.9 µM

## CC(c1ccccn1)N1C[C@@H](C)n2nc3c(c2C1=O)CN(C(=O)c1ccc(Cl)c(Cl)c1)[C@H](C)C3 (single isomer, unassigned) [Compound 65B, (3R,7R)-2-(3,4-dichlorobenzoyl)-3,7-dimethyl-9-((S*)-1-(pyridin-2-yl)ethyl)-1,2,3,4,8,9-hexahydropyrido[4′,3′:3,4]pyrazolo[1,5-a]pyrazin-10(7H)-one]
[1]
  EC50: 0.046 µM
[2]
  HLM Metabolism t1/2: 2.02 h
[3]
  CC50: > 50 µM

## Cc1ncnn1-c1ccc(C(C)N2C[C@@H](C)n3nc4c(c3C2=O)CN(C(=O)c2ccc(Cl)c(Cl)c2)[C@H](C)C4)cn1 (relative stereo) [Compound 25A, (3R,7R)-2-(3,4-dichlorobenzoyl)-3,7-dimethyl-9-((R*)-1-(6-(5-methyl-11H-1,2,4-triazol-1-yl)pyridin-3-yl)ethyl)-1,2,3,4,8,9-hexahydropyrido[4′,3′:3,4]pyrazolo[1,5-a]pyrazin-10(7H)-one]
[1]
  EC50: 0.23 µM
[2]
  HLM Metabolism t1/2: >3 h
[3]
  CC50: > 50 µM

## CC(c1cnc(C2CC2)cn1)N1C[C@@H](C)n2nc3c(c2C1=O)CN(C(=O)c1ccc(Cl)c(Cl)c1)[C@H](C)C3 (single isomer, unassigned) [Compound 3A, (3R,7R)-9-((R*)-1-(5-cyclopropylpyrazin-2-yl)ethyl)-2-(3,4-dichlorobenzoyl)-3,7-dimethyl-1,2,3,4,8,9-hexahydropyrido[4′,3′:3,4]pyrazolo[1,5-a]pyrazin-10(7H)-one]
[1]
  EC50: 0.068 µM
[2]; human, pooled human liver microsomes, pH 7.4, pooled human liver microsomes 0.5 mg/mL, read-out: HLM Metabolism t1/2
  half-life at 1 μM: > 3 h
[3]
  CC50: 33.7 µM
